Results reported in patent US8377967B2, “Piperidine derivative” (Nippon Zoki Pharmaceutical Co., Ltd., priority 2008, dated 2013).

Key:
[1] = test system: histamine-induced vascular hyperpermeability reaction; assay: Rat histamine-induced vascular hyperpermeability reaction (in vivo antihistamine action); settings: SD male rat, oral administration 1 hour before intracutaneous histamine, leaked Evans Blue pigment
Experimental: An SD male rat (SPF) of 180 g in weight was previously fed for one week or more by allowing the rat to take a solid feed and tap water ad libitum, under the environment setting of a temperature of 22° C., humidity of 55% and an artificial illumination of 12 hours a day (light phase 8 am to 8 pm), and the rat was fasted overnight to be used for the experiment. Histamine•dihydrochloride (hereinafter referred to as histamine) and Evans Blue were used by dissolving each in physiological saline upon use. A substance to be tested was dissolved in water for injection or suspended in 0.5% carboxymethyl cellulose sodium, and the rat was orally administered with the solution or suspension (dose volume: 5 mL/kg body weight). After 1 hour from the administration, the physiological saline and the histamine solution were each intracutaneously injected to two locations (20 μg/0.05 ml/location) each on a back part of the rat of which hair was sheared with an electric clipper while anesthetizing with an ether. A 0.5% Evans Blue-containing physiological saline was injected intravenously to the tail of the rat (1 mL/200 g body weight) immediately before the intracutaneous injection of the histamine.
After 30 minutes, the animal was decapitated, and allowed to bleed lethally, and the skin was removed to measure an amount of leaked pigment in the blue-stained portion. The measurement of the amount of leaked pigment was carried out as follows. Skins of the pigment leaking site were cut out at two locations, 1 mL of a 2 mol/L aqueous potassium hydroxide solution was added thereto in a test tube, and the test tube was allowed to stand overnight at 37° C. to dissolve. Thereafter, 6 mL of a 1:3 mixed solution of 0.67 mol/L phosphoric acid and acetone was added to the solution, and the mixture was vigorously shaken for 10 minutes. Thereafter, the mixture was filtered, and the absorbance of the filtrate at 620 nm was measured. The absorbance obtained from the two locations of the sites injected with physiological saline, as blank value, was used for a compensation. The amount of leaked pigment was calculated from the calibration curve of Evans Blue at 620 nm.

cerebral H1 receptor = biological target: T1, cerebral H1 receptor (Mus musculus, UniProt P70174); assay: Murine cerebral H1 receptor occupying content (ex vivo); assay type: in vivo; settings: for ED50: ICR male mouse, oral administration, brain excised after 1 hour, 3H-pyrilamine binding in brain homogenate, larger = lower brain transfer, read-out: ID50 (the source's name); for ID50 (mg/kg)/ ED50 (mg/kg): ID50 of cerebral receptor binding test (Table 20) divided by ED50 of vascular hyperpermeability test (Table 19)
T1 construct: the entire brain, except for cerebellum and medulla oblongatae, was rapidly excised; from tissue; host or cells: brain homogenate (without cerebellum and medulla oblongata) of orally dosed ICR male mice
T1 sequence (P70174 whole entry): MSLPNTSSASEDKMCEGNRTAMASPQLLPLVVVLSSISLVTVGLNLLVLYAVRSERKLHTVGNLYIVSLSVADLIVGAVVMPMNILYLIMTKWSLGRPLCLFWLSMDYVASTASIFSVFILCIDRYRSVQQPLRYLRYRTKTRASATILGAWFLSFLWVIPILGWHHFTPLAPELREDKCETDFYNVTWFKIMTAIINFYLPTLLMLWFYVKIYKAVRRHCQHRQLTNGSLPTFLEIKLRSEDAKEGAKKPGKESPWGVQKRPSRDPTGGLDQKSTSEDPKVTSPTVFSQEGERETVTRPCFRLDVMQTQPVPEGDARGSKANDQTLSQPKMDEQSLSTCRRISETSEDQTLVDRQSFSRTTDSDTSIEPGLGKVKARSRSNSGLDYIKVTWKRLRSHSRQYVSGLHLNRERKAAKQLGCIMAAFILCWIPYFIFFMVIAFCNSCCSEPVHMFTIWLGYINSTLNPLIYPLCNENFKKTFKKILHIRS
Experimental: A 6-week-old ICR male mouse was previously fed for one week or more by allowing the mouse to take a solid feed and tap water ad libitum, under the environment setting of a temperature of 22° C., humidity of 55% and an artificial illumination of 12 hours a day, and the mouse was fasted overnight to be used for the experiment. A substance to be tested was dissolved with water for injection or suspended in 0.5% carboxymethyl cellulose solution, and the solution or suspension was orally administered to the mouse (dose volume: 0.1 mL/10 g body weight). After 1 hour from the oral administration, the mouse was decapitated, and the entire brain, except for cerebellum and medulla oblongatae, was rapidly excised. The excised brain tissue was homogenized with Polytron (manufactured by Kinematica) in an ice-cooled 50 mmol/L phosphate buffered saline (pH 7.4, 100 mg/1.9 mL).
To a test tube for reaction (TPX-Tube) were added 180 μL of the brain homogenate, and 10 μL of ^3H-pyrilamine solution (final concentration: 2 nmol/L) and 10 μL of a non-labeled pyrilamine solution (final concentration: 200 μmol/L) or a 50 mmol/L phosphate buffered saline, and the mixture was incubated at room temperature for 45 minutes, and 2.0 mL of an ice-cooled, 50 mmol/L phosphate buffered saline was then added thereto to stop the reaction. The reaction mixture was filtered with a GF/B filter (manufactured by […]), and the […] was placed in a vial and dried overnight at 60 degrees. After drying, 10 mL of a scintillator (AL-1, toluene-based, manufactured by DOJINDO LABORATORIES) was added to the product, and the disintegration per minute (dpm) was measured with a liquid scintillation counter (manufactured by Packard, U.S.A., TRI-CARB 2700TR) (5 minutes/vial).

ED50 (cerebral H1 receptor) [mg/kg] | ID50 (mg/kg)/ ED50 (mg/kg) (cerebral H1 receptor) | SMILES | ED50 [1] [mg/kg]
95.5 | 140.4 | CN1CCC(=C2c3ccccc3CC(=O)c3sc(C=CC(=O)O)cc32)CC1 [Compound 48, 3-[4-(1-Methylpiperidin-4-ylidene)-10-oxo-9,10-dihydro-4H-1-thiabenzo[f]azulen-2-yl]acrylic acid] | 0.68
19.5 | 139.3 | CN1CCC(=C2c3ccccc3CCc3sc(C(C)(C)C(=O)O)cc32)CC1 [Compound 65, 2-Methyl-2-[4-(1-methylpiperidin-4-ylidene)-9,10-dihydro-4H-1-thiabenzo[f]azulen-2-yl]propionic acid] | 0.14
14.6 | 112.3 | CN1CCC(=C2c3cc(C(C)(C)C(=O)O)ccc3OCc3ccsc32)CC1 [Compound 68, 2-Methyl-2-[4-(1-Methylpiperidin-4-ylidene)-4,10-dihydro-9-oxa-3-thiabenzo[f]azulen-6-yl]propionic acid] | 0.13
4.2 | 155.6 | CN1CCC(=C2c3cc(CC(=O)O)ccc3OCc3sccc32)CC1 [Compound 117, [4-(1-Methylpiperidin-4-ylidene)-4,10-dihydro-9-oxa-1-thiabenzo[f]azulen-6-yl]acetic acid] | 0.027
74.5 | 67.7 | O=C(O)Cc1ccc2c(c1)C(=C1CCN(CCO)CC1)c1sccc1CO2 [Compound 119, {4-[1-(2-Hydroxyethyl)piperidin-4-ylidene]-4,10-dihydro-9-oxa-3-thiabenzo[f]azulen-6-yl}acetic acid] | 1.1
7.45 | 74.5 | CCN1CCC(=C2c3cc(CC(=O)O)ccc3OCc3ccsc32)CC1 [Compound 128, [4-(1-Ethylpiperidin-4-ylidene)-4,10-dihydro-9-oxa-3-thiabenzo[f]azulen-6-yl]acetic acid] | ~0.1
37.5 | 220.6 | CC(C)N1CCC(=C2c3cc(CC(=O)O)ccc3OCc3ccsc32)CC1 [Compound 132, [4-(1-Isopropylpiperidin-4-ylidene)-4,10-dihydro-9-oxa-3-thiabenzo[f]azulen-6-yl]acetic acid] | 0.17
> 200 | >89.3 | O=C(O)Cc1ccc2c(c1)C(=C1CCN(CCCO)CC1)c1sccc1CO2 [Compound 139, {4-[1-(3-Hydroxypropyl)piperidin-4-ylidene]-4,10-dihydro-9-oxa-3-thiabenzo[f]azulen-6-yl}acetic acid] | 2.24
66.6 | 199.4 | CCN1CCC(=C2c3ccccc3CCc3sc(C(C)(C)C(=O)O)cc32)CC1 [Compound 155, 2-[4-(1-Ethylpiperidin-4-ylidene)-9,10-dihydro-4H-1-thiabenzo[f]azulen-2-yl]-2-methylpropionic acid] | 0.334
10.4 | 39.4 | CC(=O)CN1CCC(=C2c3cc(CC(=O)O)ccc3OCc3ccsc32)CC1 [Compound 168, {4-[1-(2-Oxopropyl)piperidin-4-ylidene]-4,10-dihydro-9-oxa-3-thiabenzo[f]azulen-6-yl}acetic acid] | 0.264
70.3 | 114.5 | CC(=O)CCCN1CCC(=C2c3cc(CC(=O)O)ccc3OCc3ccsc32)CC1 [Compound 170, {4-[1-(4-Oxopentyl)piperidin-4-ylidene]-4,10-dihydro-9-oxa-3-thiabenzo[f]azulen-6-yl}acetic acid] | 0.614

The remaining lines, values behind:

SMILES | ED50 (cerebral H1 receptor) [mg/kg] | ID50 (mg/kg)/ ED50 (mg/kg) (cerebral H1 receptor) | ED50 [1] [mg/kg]
CN1CCC(=C2c3cc(C(=O)O)ccc3OCc3ccsc32)CC1 [Compound 26, [4-(1-Methylpiperidin-4-ylidene)-4,10-dihydro-9-oxa-3-thiabenzo[f]azulen-6-yl]carboxylic acid] | 4.8 | 81.4 | 0.059
CN1CCC(=C2c3cc(C=CC(=O)O)ccc3OCc3ccsc32)CC1 [Compound 35, 3-[4-(1-Methylpiperidin-4-ylidene)-4,10-dihydro-9-oxa-3-thiabenzo[f]azulen-6-yl]acrylic acid] | 28.4 | 101.4 | 0.28
CN1CCC(=C2c3cc(CC(=O)O)ccc3OCc3ccsc32)CC1.Cl [Compound 54, [4-(1-Methylpiperidin-4-ylidene)-4,10-dihydro-9-oxa-3-thiabenzo[f]azulen-6-yl]acetic acid hydrochloride] | 9.3 | 344.4 | 0.027
CCN1CCC(=C2c3ccccc3CCc3sc(C(=O)O)cc32)CC1.Cl [Compound 108, [4-(1-Ethylpiperidin-4-ylidene)-9,10-dihydro-4H-1-thiabenzo[f]azulen-2-yl]carboxylic acid hydrochloride] | 110 | 95.3 | 1.16
CCOC(=O)Cc1ccc2c(c1)C(=C1CCNCC1)c1sccc1CO2.Cl [Compound 113, Ethyl (4-piperidin-4-ylidene-4,10-dihydro-9-oxa-3-thiabenzo[f]azulen-6-yl)acetate hydrochloride] | 98.7 | 1370.8 | 0.072
COC(=O)Cc1ccc2c(c1)C(=C1CCNCC1)c1sccc1CO2.Cl [Compound 126, Methyl (4-piperidin-4-ylidene-4,10-dihydro-9-oxa-3-thiabenzo[f]azulen-6-yl)acetate hydrochloride] | 237 | 530.7 | 0.446
COC(=O)CCCc1ccc2c(c1)C(=C1CCNCC1)c1sccc1CO2.Cl [Compound 135, Methyl 4-(4-piperidin-4-ylidene-4,10-dihydro-9-oxa-3-thiabenzo[f]azulen-6-yl)butyrate hydrochloride] | > 200 | >85.8 | 2.33
CCCOC(=O)Cc1ccc2c(c1)C(=C1CCNCC1)c1sccc1CO2.Cl [Compound 137, Propyl (4-piperidin-4-ylidene-4,10-dihydro-9-oxa-3-thiabenzo[f]azulen-6-yl)acetate hydrochloride] | > 200 | >833.3 | 0.24
CCOC(=O)C(C)(C)c1cc2c(s1)CCc1ccccc1C2=C1CCNCC1.Cl [Compound 152, Ethyl 2-methyl-2-(4-piperidin-4-ylidene-9,10-dihydro-4H-1-thiabenzo[f]azulen-2-yl)propionate hydrochloride] | 199 | 133.8 | 1.49
CC(C)(C(=O)O)c1cc2c(s1)CCc1ccccc1C2=C1CCNCC1.Cl [Compound 153, 2-Methyl-2-(4-piperidin-4-ylidene-9,10-dihydro-4H-1-thiabenzo[f]azulen-2-yl)propionic acid hydrochloride] | > 200 | >76.6 | 2.61
COC(=O)Cc1ccc2c(c1)C(=C1CCN(CC(C)=O)CC1)c1sccc1CO2.Cl [Compound 167, Methyl {4-[1-(2-oxopropyl)piperidin-4-ylidene]-4,10-dihydro-9-oxa-3-thiabenzo[f]azulen-6-yl}acetate hydrochloride] | 35.1 | 180.9 | 0.194
